# Reference: patent US20230054767A1, “COMBINATIONS” (Recurium IP Holdings, LLC, priority 2019, published 2023)
# How the values were obtained:
# Assay type in all cases: in vivo
# MCF-7 cells [1] = assay: Example 2: MCF-7 xenograft tumor model, Compound A (5 mg/kg) and Compound 5; details: BALB/c nude mice, orally once a day for 24 days, Compound 5 200 mg/kg, alone or combined
# Description: (§1) Example 1: MCF-7 cells were grown in DMEM Medium supplemented with 15% heat inactivated fetal bovine serum at 37° C. in an atmosphere of 5% CO2 in air. BALB/c nude mice were implanted subcutaneously on the 2nd right mammary fat pad with a single cell suspension of 95% viable tumor cells (1.5×10^7) in 200 μL DMEM Matrigel mixture (1:1 ratio) without serum. […] Tumor volumes were evaluated twice per week to calculate tumor volume over time, and mice were weighed twice per week as a surrogate for signs of toxicity. […] The percent tumor regression was calculated using the formula: (1−(Td/T0))×100%.
# Example 2: MCF-7 cells were grown in DMEM Medium supplemented with 15% heat inactivated fetal bovine serum at 37° C. in an atmosphere of 5% CO2 in air. […] Tumor volumes were evaluated twice per week to calculate tumor volume over time, and mice were weighed twice per week as a surrogate for signs of toxicity. TGI and Tumor regression values were calculated using the equations provided in Example 1. […]
# MCF-7 cells [2] = assay: Example 1: MCF-7 xenograft tumor model, Compound A and Compound 5; details: BALB/c nude mice, orally once a day for 21 days, Compound A 10 mg/kg, Compound 5 200 mg/kg, alone or combined
# Description: Example 1: MCF-7 cells were grown in DMEM Medium supplemented with 15% heat inactivated fetal bovine serum at 37° C. in an atmosphere of 5% CO2 in air. BALB/c nude mice were implanted subcutaneously on the 2nd right mammary fat pad with a single cell suspension of 95% viable tumor cells (1.5×10^7) in 200 μL DMEM Matrigel mixture (1:1 ratio) without serum. When tumors reached approximately 172 mm^3, animals were randomly distributed into treatment groups of 10 animals each and dosed orally, once a day for 21 days as follows: vehicle at the same volume as the single agent treatment; Compound A (alternatively referred to as “Compound (A)” in the specification and figures) at 10 mg/kg; Compound 5 at 200 mg/kg; and the combination treatment of Compound A 10 mg/kg) and Compound 5 (200 mg/kg). In addition, estradiol benzoate injections were given subcutaneously (40 μg/ 20 μL, twice weekly) to all treatment groups. Tumor volumes were evaluated twice per week to calculate tumor volume over time, and mice were weighed twice per week as a surrogate for signs of toxicity. Tumor growth inhibition (TGI) was calculated using the following equation TGI=(1−(Td−T0)/(Cd−C0))×100%. […] The percent tumor regression was calculated using the formula: (1−(Td/T0))×100%.
# MCF-7 cells [3] = assay: Example 3: MCF-7 xenograft tumor model, Compound A and Compound 6; details: BALB/c nude mice, orally once a day for 28 days, Compound A 10 mg/kg, Compound 6 50 mg/kg, alone or combined
# Description: as §1
# Example 3: MCF-7 cells were grown in DMEM Medium supplemented with 15% heat inactivated fetal bovine serum at 37° C. in an atmosphere of 5% CO2 in air. […] Tumor volumes were evaluated twice per week to calculate tumor volume over time, and mice were weighed twice per week as a surrogate for signs of toxicity. TGI and Tumor regression values were calculated using the equations provided in Example 1.
smiles,measurement,setting,value
C[C@@H]1Cc2c([nH]c3ccccc23)[C@@H](c2c(F)cc(/C=C/C(=O)O)cc2F)N1C12CC(C1)C2 [Compound A],TUMOR REGRESSION % (DAY 24),MCF-7 cells [1],8%
same,TGI % (DAY 24),MCF-7 cells [1]; estradiol benzoate s.c.,108%
same,TUMOR REGRESSION % (DAY 21),MCF-7 cells [2],0%
same,TGI % (DAY 21),MCF-7 cells [2]; estradiol benzoate s.c.,81%
same,TUMOR REGRESSION % (DAY 29),MCF-7 cells [3],33%
same,TGI % (DAY 29),MCF-7 cells [3]; estradiol benzoate s.c.,120%
